The source of these data is publication PMC12736473, “Development and Validation of LC-MS/MS Method for Nintedanib and BIBF 1202 Monitoring in Plasma of Patients with Progressive Pulmonary Fibrosis Associated with Systemic Sclerosis” (Pharmaceutics, 2025).

Structures are written as SMILES. Where two headings read alike, the source gives them in different places.

The nature of data set [1]: NIN and BIBF 1202 plasma concentrations (C0, Cmax) in patients treated with NIN, UPLC-MS/MS. The format is in vivo, human. The note with it: for Cmax: human, read-out: Mean Concentration Cmax; for Cmax / Mean Concentration C0: patient plasma; for Concentration in the patient sample (chromatogram): single patient sample after administration of 100 mg dose. How it is done: Whole blood was collected via standard venipuncture from 24 patients diagnosed with CTD-PPF. Patients received treatment with NIN, of whom 8 were administered a dose of 100 mg twice daily and 16 received 150 mg twice daily. Blood samples were obtained prior to the first daily NIN dose (trough concentration, C0) and 2–3 h afterward (maximum concentration, Cmax). Following collection, samples of whole blood with NIN and metabolite were centrifuged, and then plasma was stored at −70 °C. This study was approved by the Local Bioethics Committee of the National Institute of Geriatrics, Rheumatology, and Rehabilitation in Warsaw (KBT-5/3/2024).
To prepare the samples, 200 μL of plasma was spiked with 20 μL of IS (NIN-d3) and vortexed. Protein precipitation was carried out using 500 μL of chilled ACN solution after we previously neutralized the samples with 50 μL of 2 M sodium carbonate (Na2CO3). The samples were subsequently mixed on an orbital shaker (Vibrax, IKA, Staufen, Germany) for 30 s at 1800 and centrifuged for 10 min at 13,000 rpm, 3 °C. Then, 200 μL of the supernatant was transferred into autosampler vials for LC-MS/MS analysis under the conditions described in Section 2.6 and Section 2.7.
The UPLC Acquity I-class Plus system (Milford, MA, USA, Waters), equipped with a quaternary gradient pump, column oven, degasser unit, and autosampler, was used. The autosampler and column were maintained at 10 ± 2 °C and 40 ± 2 °C, respectively. The isocratic elution was carried out using a mobile phase consisting of 0.1% formic acid in water and acetonitrile (35:65, v/v). The mobile phase flowed through a Zorbax SB-C18 column (100 mm × 3.0 mm, 3.5 µm; Santa Clara, CA, USA, Agilent Technologies) at a flow rate of 0.3 mL/min. The system was equipped with an ASSY FRIT pre-column (0.2 µm, 2.1 mm; Milford, MA, USA, Waters). To prevent the carry-over effect, after the analysis, the injection needle was washed with a mixture consisting of acetonitrile, methanol, isopropyl alcohol, water, and formic acid (250:250:250:250:1, v/v/v/v/v).
Mass spectrometric analysis was performed using a XEVO-TQ-XS quadrupole mass spectrometer (Milford, MA, USA, Waters). Multiple Reaction Monitoring (MRM) chromatograms were acquired and processed with MassLynx 4.2 software (Milford, MA, USA, Waters). Ionization was carried out in positive ion mode using electrospray ionization (ESI+). MS parameters of instruments and analyzed compounds are detailed in Table 1.
The LC-MS/MS method developed and fully validated in this study was used to analyze the concentrations (C0 and Cmax) of nintedanib and its metabolite BIBF 1202 in human plasma. Twenty-four patients were treated with two doses of NIN (8 patients: 100 or 16 patients: 150 mg twice daily). In total, 48 samples were collected from patients at two time points: a morning dose at the trough level, and a dose 2–3 h (Cmax) after the morning dose administration. The concentrations of NIN and its metabolite were determined in the plasma of 24 patients (Male/Female 8:16, mean age 56.2, age range 35–75) with progressive pulmonary fibrosis associated with systemic sclerosis. The obtained results are presented in Table 7 and illustrated graphically (Figure 4).

The nature of data set [2]: Short-term stability in human plasma at ambient temperature (≤30 °C). The format is in vitro ADME. The note with it: for Short-term stability, Stability [%]: human plasma, ≤30 °C, vs reference samples. How it is done: (§1) The stability of NIN and BIBF 1202 in human plasma, including in the short term, autosampler, and freeze–thaw, was evaluated for the QC samples analyzed at two concentrations, 5.00 ng/mL (LQC1) and 170.00 ng/mL (HQC), studied in six replicates per test. The short-term stability of NIN and BIBF 1202 was assessed for the samples that were stored at ambient temperature (≤30 °C) for at least two hours, which were analyzed and compared with freshly prepared samples. Autosampler stability was determined by storing samples in the autosampler at 10 ± 2 °C for at least […]. Freeze–thaw stability was examined over three cycles, in which samples were frozen at ≤−14 °C for 12 h and subsequently thawed at ambient temperature (≤30 °C).
(§2) Autosampler stability was examined by storing samples at 10 ± 2 °C for up to 48 h. No impact of three freeze–thaw cycles (freezing at ≤−14 °C and thawing at ambient temperature) was observed on the stability of NIN or BIBF 1202.

Data set [3] in a line: Autosampler stability at 10 ± 2 °C. The note with it: after 45 h. Format: physicochemical, human. The protocol:
as §1, §2

Data set [4] is described as follows: Freeze–thaw stability in human plasma, three cycles. The format is in vitro ADME. The note with it: for Freeze–thaw stability, Stability [%]: human plasma, 3 cycles (≤−14 °C / ambient); for Impact of freeze–thaw cycles on stability: three cycles, freezing at ≤−14 °C, thawing at ambient temperature. The protocol:
as §1, §2

On the set-up of data set [5]: method as in PMID 26072676. As to conditions: cited from earlier work.
Details of data set [6]: method as in PK study presented in the literature. As to conditions: ref PK study presented in the literature; cited from earlier work.
[7] abbreviates: NIN 100 mg twice daily, n = 8, 2–3 h after morning dose.
Where [8] appears, read: NIN 150 mg twice daily, n = 16, 2–3 h after morning dose.
Where [9] appears, read: NIN 100 mg twice daily, n = 8, trough (before first daily dose).
[10] abbreviates: NIN 150 mg twice daily, n = 16, trough (before first daily dose).
Setting [11] is: 2 h at ambient temperature (≤30 °C).

For the compound `CN1CCN(CC(=O)N(C)c2ccc(N/C(=C3\C(=O)Nc4cc(C(=O)O)ccc43)c3ccccc3)cc2)CC1` [BIBF 1202], the Cmax is 26.6 ng/mL in data set [1] (setting [7]) and 57.8 ng/mL in data set [1] (setting [8]). The “Mean Concentration C0” value in data set [1] (setting [9]) came to 9.81 ng/mL; in data set [1] (setting [10]), 35.20 ng/mL. Further, the “Concentration in the patient sample (chromatogram)” value in data set [1] is 28.0 ng/mL. Also, the “Short-term stability, Stability [%]” value in data set [2] (2 h, HQC (170.00 ng/mL)) came out at 102.3%; in data set [2] (2 h, LQC1 (5.00 ng/mL)) it was 100.8%. Moreover, the figures for the “Effect of storing plasma samples on concentration” value in data set [2] (setting [11]) and in data set [2] (4 h at ≤30 °C) were “did not cause changes” and “reduction in the BIBF signal”, respectively. Besides, the “Autosampler stability, Stability [%]” value in data set [3] (HQC (170.00 ng/mL)) is 98.9%; in data set [3] (LQC1 (5.00 ng/mL)) it was 98.5%. Moreover, the “Freeze–thaw stability, Stability [%]” value in data set [4] (HQC (170.00 ng/mL)) is 105.9%; in data set [4] (LQC1 (5.00 ng/mL)) it was 94.7%. Moreover, in data set [4], the “Impact of freeze–thaw cycles on stability” value is given as “No impact”.
With `COC(=O)c1ccc2c(c1)NC(=O)/C2=C(\Nc1ccc(N(C)C(=O)CN2CCN(C)CC2)cc1)c1ccccc1` [NIN, Nintedanib], the results for the Cmax in data set [1] (setting [7]) and in data set [1] (setting [8]) were 16.5 ng/mL and 28.7 ng/mL, respectively. For the same compound, the “Mean Concentration C0” value was 7.33 ng/mL in data set [1] (setting [9]) and 18.60 ng/mL in data set [1] (setting [10]). Moreover, the “Concentration in the patient sample (chromatogram)” value in data set [1] is 12.3 ng/mL. Moreover, the “Short-term stability, Stability [%]” value in data set [2] (4 h, HQC (170.00 ng/mL)) is given as 101.3%; in data set [2] (4 h, LQC1 (5.00 ng/mL)), 100.7%. Besides, the “Effect of storing plasma samples on concentration” value in data set [2] (setting [11]) was “did not cause changes”; in data set [2] (4 h at ≤30 °C), “no effect”. The “Autosampler stability, Stability [%]” value in data set [3] (HQC (170.00 ng/mL)) was 100.6%; in data set [3] (LQC1 (5.00 ng/mL)), 96.4%. Moreover, the “Freeze–thaw stability, Stability [%]” value in data set [4] (HQC (170.00 ng/mL)) turned out to be 99.7%; in data set [4] (LQC1 (5.00 ng/mL)), 94.6%. Further, the “Impact of freeze–thaw cycles on stability” value in data set [4] was “No impact”. Further, the Rate of diarrhea in data set [5] (patients who continued NIN) is 60.1%; in data set [5] (patients who initiated NIN) it was 71%. For the same compound, the “Time of peak plasma concentrations after administration” value in data set [6] is 2 to 3 h.
